Experimental findings from PubChem BioAssay (NCI) are described below.

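Results reflect a 48-hour exposure of cells in 96-well plates to compound at five concentrations. TGI is the concentration that stops growth completely.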

Some test systems named below: HL-60(TB) leukemia; HOP-92 NSCLC; HS 578T breast; MALME-3M melanoma; MCF7 breast; NCI-H522 lung; OVCAR-4 ovarian; SR leukemia; UO-31 renal; CAKI-1 renal.
Experiment in all cases: growth of human tumour cells (NCI), 48 h

As for `c1cc2cc3c4c5c(cc6ccc7cc8cc9c%10c8c8c7c6c5c8c5c%10c(c1C9N1CCOCCOCCOCCOCCOCC1)c2c45)C3` (centres undefined), the TGI in the assay with HL-60(TB) leukemia, with HOP-92 NSCLC, in the assay with HS 578T breast, with MALME-3M melanoma, in the assay on MCF7 breast and with NCI-H522 lung was > 100 µM in each case. Further, the TGI with OVCAR-4 ovarian, in the assay with SR leukemia and with UO-31 renal was > 100 µM throughout.
In the case of `Nc1ccc2c(=O)cc(-c3ccc(Br)s3)[nH]c2n1`, the TGI with CAKI-1 renal was > 100 µM; in the assay on HOP-92 NSCLC it was > 100 µM; with HS 578T breast, > 100 µM; with MALME-3M melanoma, > 100 µM; in the assay with MCF7 breast, > 100 µM; with NCI-H522 lung, > 23.1 µM. Besides, the TGI was > 100 µM in the assay on OVCAR-4 ovarian, > 51.1 µM in the assay on SR leukemia and > 23.2 µM with UO-31 renal.
Turning to `O=c1cc(N2CCOCC2)n2c(ccc3ccccc32)n1`, the TGI with CAKI-1 renal, in the assay with HL-60(TB) leukemia, in the assay with HOP-92 NSCLC, with HS 578T breast, in the assay with MALME-3M melanoma and in the assay with MCF7 breast was > 100 µM each time. Also, the TGI with NCI-H522 lung, with SR leukemia and in the assay on UO-31 renal was > 100 µM in each case.
In the case of `COc1c(C)c(C/C=C(\C)CCCC(C)CCCC(C)CCCC(C)C)c(OC)c2ccccc12` (centres undefined), the TGI in the assay with CAKI-1 renal, with HOP-92 NSCLC, in the assay with HS 578T breast, in the assay on MCF7 breast, in the assay with NCI-H522 lung and in the assay on OVCAR-4 ovarian was > 100 µM each time. The TGI with SR leukemia and in the assay on UO-31 renal was > 100 µM throughout.
As for `CC(=O)/C=C/c1ccccc1`, the TGI is > 100 µM in the assay on CAKI-1 renal; > 100 µM in the assay on HL-60(TB) leukemia; > 100 µM in the assay on HS 578T breast; > 100 µM in the assay on MALME-3M melanoma; > 100 µM in the assay on MCF7 breast; 32.6 µM in the assay with NCI-H522 lung. Moreover, the TGI with OVCAR-4 ovarian is > 100 µM; with SR leukemia, 53 µM; with UO-31 renal, > 100 µM.
For `CCOC(=O)C1CCC(=O)N1C(=O)c1cccc(Cl)c1` (centres undefined), the TGI in the assay on CAKI-1 renal, in the assay with HL-60(TB) leukemia, in the assay with HOP-92 NSCLC, in the assay with HS 578T breast, in the assay on MALME-3M melanoma and in the assay on MCF7 breast was > 100 µM throughout. Besides, the TGI in the assay on NCI-H522 lung, in the assay on SR leukemia and with UO-31 renal was > 100 µM throughout.
Regarding `COc1cc2c3c(n(C)c(=O)c2cc1OC)-c1cc2c(cc1/C3=C\CCCCCBr)OCO2`, the TGI in the assay with CAKI-1 renal was > 100 µM; in the assay on HL-60(TB) leukemia, 20.3 µM; in the assay on HOP-92 NSCLC it was 38.7 µM; in the assay with HS 578T breast, > 100 µM; in the assay on MCF7 breast, > 100 µM; with NCI-H522 lung it was 52.4 µM. Further, the TGI in the assay on OVCAR-4 ovarian is > 100 µM; in the assay on SR leukemia it was 14.1 µM; in the assay on UO-31 renal, 47.8 µM.
Turning to `O=c1c2ccccc2nc(N/N=C/c2ccc([N+](=O)[O-])cc2)n1-c1ccccc1`, the TGI was 49.4 µM in the assay with CAKI-1 renal; > 100 µM with HL-60(TB) leukemia; 68.1 µM in the assay with HS 578T breast; > 100 µM in the assay on MALME-3M melanoma; > 100 µM with MCF7 breast; > 100 µM in the assay with NCI-H522 lung. Also, the TGI in the assay on OVCAR-4 ovarian, with SR leukemia and with UO-31 renal was > 100 µM throughout.
Take `CCOC(=O)CCc1cn2cc(Br)nc(OC)c2n1`: the TGI with CAKI-1 renal, with HL-60(TB) leukemia, in the assay on HS 578T breast, with MALME-3M melanoma, in the assay with MCF7 breast and with NCI-H522 lung was > 100 µM throughout. Also, the TGI in the assay with OVCAR-4 ovarian was > 100 µM; in the assay on SR leukemia, > 100 µM; in the assay with UO-31 renal, 58.5 µM.
For the molecule `c1ccc2c(Nc3ncco3)cccc2c1`, the TGI in the assay on CAKI-1 renal, in the assay on HOP-92 NSCLC, in the assay with HS 578T breast, with MALME-3M melanoma, in the assay with MCF7 breast and in the assay with NCI-H522 lung was > 10 µM throughout. Further, the TGI in the assay with OVCAR-4 ovarian, in the assay on SR leukemia and with UO-31 renal was > 10 µM in each case.
On to `Cc1c(OCc2cccc3ccccc23)ccc2c(=O)cc(SCCN3CCOCC3)oc12`, for which the TGI in the assay on CAKI-1 renal, in the assay with HL-60(TB) leukemia, in the assay with HOP-92 NSCLC, with HS 578T breast, in the assay with MCF7 breast and with NCI-H522 lung was > 100 µM throughout. The TGI with OVCAR-4 ovarian, in the assay with SR leukemia and in the assay with UO-31 renal was > 100 µM in each case.
`[N-]=[N+]=Nc1nc2ccccc2c(N=[N+]=[N-])c1Cl`: the TGI with CAKI-1 renal, in the assay on HL-60(TB) leukemia, in the assay with HOP-92 NSCLC, in the assay with HS 578T breast, in the assay with MALME-3M melanoma and in the assay on MCF7 breast was > 100 µM each time. The TGI in the assay with OVCAR-4 ovarian, in the assay with SR leukemia and in the assay with UO-31 renal was > 100 µM each time.
For the molecule `Cc1cc2c(c(C(=O)NCC(=O)O)c1)Oc1c(cc(C)cc1C(=O)NCC(=O)O)S2`, the TGI in the assay with CAKI-1 renal, with HOP-92 NSCLC, with HS 578T breast, in the assay with MALME-3M melanoma, in the assay with MCF7 breast and with NCI-H522 lung was > 100 µM each time. Further, the TGI with OVCAR-4 ovarian and in the assay with SR leukemia was > 100 µM each time.
As to `O=C1C=CC(=O)c2c1ccc1c3ccccc3n(Cc3ccccc3)c21`, the TGI with CAKI-1 renal is 32 µM; with HL-60(TB) leukemia it was 15.3 µM; in the assay on HS 578T breast, > 100 µM; in the assay with MALME-3M melanoma, 30.8 µM; with MCF7 breast, 45.6 µM; in the assay on NCI-H522 lung, 19.9 µM. Also, the results for the TGI in the assay with OVCAR-4 ovarian, in the assay with SR leukemia and with UO-31 renal were 18.1 µM, > 28.7 µM and 50.1 µM, respectively.
